Legend:
[1] = tested on: slices of rat dorsal spinal cord; assay: CGRP-LI outflow from slices of rat dorsal spinal cord (EIA); assay type: cell-based
Method: (§1) Slices of guinea pig trachea and bronchi or of rat dorsal spinal cord were prepared and transferred to perfusion chambers and perfused. After an equilibration period, samples were collected before, during and after the delivery of an excitatory stimulus (KCl 80 mM). The effect of Andolast was compared with the effect of its vehicle. CGRP-like immunoreactivity (GCRP-LI) was measured by enzyme immunoassay (EIA).
In the rat dorsal spinal cord the experiments with Andolast were performed also in the presence of 100 nM charybdotoxin.

[2] = tested on: T lymphocytes (Th2); assay: Treatment course in atopic mild-moderate asthmatic patients; assay type: in vivo, human; details: standard treatment course
[3] = tested on: newborn rat cultured DRG neurons; assay: [Ca2+]i mobilization in cultured DRG neurons (Fura-2); assay type: cell-based
Method: Dorsal root ganglia (DRG) were removed from 1-3 days old rats and dissociated into single cells according to well established procedures. Cells, plated on coated glass coverslips were loaded with Fura-2-AM-ester to detect relative intracellular calcium ([Ca^2+]i) changes.
During the Ca^2+ fluorescence the cells were excited with electrical stimulation (10 Hz, 1 ms, 0.40 mA/cm^2 for 10 sec) twice with a resting period between each stimulation of 20 min. These experiments were performed in the presence or absence of 100 nM charybdotoxin.

[4] = tested on: slices of guinea pig airways; assay: CGRP-LI outflow from slices of guinea pig airways (EIA); assay type: cell-based
Method: as §1

[5] = tested on: human B lymphocytes from allergic donors; assay: IL-4 dependent IgE synthesis by human B lymphocytes; assay type: cell-based
[6] = tested on: guinea pig isolated bronchial rings; assay: eNANC contractile response of isolated guinea pig bronchial rings; assay type: cell-based
Method: Guinea pig bronchial rings were mounted in organ baths. After an equilibration period the eNANC contractile response to EFS (5 Hz, 20 sec, 0.5 ms pulse width at 40 V) in the presence of atropine (1 μM) was studied. The effects of Andolast or its vehicle on the eNANC were studied in parallel experiments in the presence or absence of 100 nM charybdotoxin. The ability of Andolast to affect the direct bronchoconstrictor activity of SP was also studied.

## O=C(Nc1ccc(-c2nn[nH]n2)cc1)c1ccc(-c2nn[nH]n2)cc1 [Andolast, N-4-(1H-tetrazol-5-yl)phenyl-4-(1H-tetrazol-5-yl)benzamide]
[1]; 100 nM charybdotoxin
  inhibition of high K+ induced CGRP-LI outflow in presence of charybdotoxin: completely abrogated
[1]; Andolast 1 μM, KCl 80 mM
  maximum inhibition of the outflow of CGRP-LI induced by high K+ medium: 48 % of vehicle
[1]; Andolast 0.1-1 μM, rat dorsal spinal cord slices
  outflow of CGRP-LI (without stimulus): did not cause any significant increase
[1]; KCl 80 mM, rat dorsal spinal cord slices
  outflow of CGRP-LI induced by high K+ medium: concentration-dependent inhibition
[2]
  T lymphocytes (Th2) production of IL-5: inhibitory effect
  percentage of eosinophils in the sputum: decrease
[3]; 100 nM charybdotoxin (ChTX)
  inhibitory effect on EFS-induced [Ca2+]i mobilization in presence of charybdotoxin: completely reversed
[3]; capsaicin 0.1 μM, pretreatment with Andolast 10 μM
  response to capsaicin ([Ca2+]i): not affected
[3]; pre-treatment with Andolast 10 μM or its vehicle
  mobilization of [Ca2+]i in response to ionomycin: similar
[3]; pretreatment with Andolast compared to vehicle, EFS 10 Hz, 1 ms, 0.40 mA/cm2 for 10 sec
  response to EFS ([Ca2+]i mobilization): diminished the response to EFS
[4]; Andolast 0.1-1 μM, guinea pig airway slices
  outflow of CGRP-LI (without stimulus): did not cause any significant increase
[4]; Cavia porcellus, Andolast 1 μM, KCl 80 mM, read-out: inhibition of the CGRP-LI outflow induced by high K+ medium
  inhibition at 1 µM: 67%
[5]
  IL-4 dependent IgE synthesis: potent inhibitory effect
[6]; Andolast 10 μM
  contractile response to SP: did not affect
[6]; Cavia porcellus, 10 μM Andolast, atropine 1 μM, read-out: maximum inhibition of the contractile response to EFS
  inhibition at 10 µM: 45%
[6]; charybdotoxin 0.1 μM
  effect on EFS contraction in presence of charybdotoxin: completely abrogated
[6]; in the presence of atropine (1 μM), pretreatment with Andolast
  contractile response to EFS (eNANC): diminished dose-dependently
